Results from patent US20250171432A1, “COMPOUNDS AND METHODS OF USE” (Tango Therapeutics, Inc., priority 2022, published 2025).
pIC50: −log10 of the molar value.

Columns and labels:
Format in all cases: cell-based
[1] = test system: SDMA (PRMT5 activity) in HAP1 MTAP-intact cell line; experiment: SDMA in-cell western assay, HAP1 MTAP-intact; conditions: SDMA in-cell western, HAP1 MTAP-intact cells, 24 hours compound incubation
Method: (§1) The SAM-cooperative PRMT5 inhibitor, GSK3326595, was sourced from SelleckChem and maintained as a 10 mM DMSO stock. All test compounds are maintained as 10 mM DMSO stocks
(§2) On Day 0, MTAP-intact or MTAP-deleted cells are seeded in a 384-well plate, and incubated in a humidified, 5% CO2 tissue culture incubator for 16-24 hours. On Day 1, the test compounds are dispensed to wells at defined concentrations using a Tecan D300e digital dispenser (n=4), and the volume of DMSO is normalized to highest class volume. Each plate includes wells dosed with defined concentrations of GSK33226595 as a plate control. The compounds are incubated with cells for 24 hours in a humidified, 5% CO2 tissue culture incubator.
(§3) On Day 2, the compound-treated cells are fixed with a final concentration of 4% formaldehyde. The cells are then washed/permeabilized with 1×PBS+0.1% Triton X-100, and then blocked with 5% goat serum/1×TBS.
(§4) The cells are washed with 1×PBS+0.1% Triton X-100, and then washed again with ddH20. The plates are then imaged using a NIR fluorescent imager (LiCor Odyssey).
(§5) For data analysis, the SDMA signal is normalized to the DRAQ5 signal. Assay background is determined by the signal from wells treated with 1 μM GSK3326595, and subtracted from every well. The data are plotted as % of the DMSO control wells for the MTAP-intact and the MTAP-deleted cell lines independently, and fitted to the 4-parameter logistic (4-PL) Hill equation with maximal effect constrained to 0. The fit was performed using GraphPad Prism or the default IC50 fitting procedure in Dotmatics Studies 5.4 as part of a customized data analysis protocol.

[2] = test system: SDMA (PRMT5 activity) in HAP1 MTAP-deleted cell line; experiment: SDMA in-cell western assay, HAP1 MTAP-deleted; conditions: for pIC50 / IC90: SDMA in-cell western, HAP1 MTAP-deleted cells, 24 hours compound incubation; for Hap1 MTAP intact/deleted ratio: ratio of SDMA IC50 in HAP1 MTAP-intact to HAP1 MTAP-deleted cell line
Method: as §1, §2, §3, §4, §5

[3] = test system: HAP1 MTAP-deleted cell line; experiment: Viability assay (CellTiter-Glo), HAP1 MTAP-deleted; conditions: HAP1 MTAP-deleted cells, 7 days
Method: All test compounds are maintained as 10 mM DMSO stocks.
On Day 0, MTAP-intact and MTAP-deleted cells are seeded in a 96-well plate, and incubated in a humidified, 5 or 10% CO2 tissue culture incubator for 16-24 hours. On Day 1, the test compounds are dispensed to wells at defined concentrations using a Tecan D300e digital dispenser (n=3), and the volume of DMSO is normalized to highest class volume (0.2%). The compound-treated plates are incubated for 7 days in a humidified, 5 or 10% CO2 tissue culture incubator.
On Day 7, the plates are removed from the tissue culture incubator and allowed to equilibrate to room temperature. Then either a ½% volume CellTiter-Glo Luminescent Cell Viability Assay reagent (Promega G7572) is added to each well, or the media is removed from every well and a 1:3 dilution of CellTiter-Glo 2.0 Cell Viability Assay reagent (Promega G9241) in 1×PBS is added. Ten minutes after addition, the luminescent signal is detected by an Envision plate reader. The data are plotted as % of the DMSO control wells for the MTAP-intact and the MTAP-deleted cell lines independently, and fitted to the 4-parameter logistic (4-PL) Hill equation with maximal effect constrained to 0. The fit was performed using GraphPad Prism or the default IC50 fitting procedure in Dotmatics Studies 5.4 as part of a customized data analysis protocol.

Row | SMILES | pIC50 ([1]; Homo sapiens, HAP1, 24 h) | pIC50 ([2]; Homo sapiens) | IC90 ([2]; Homo sapiens) [nM] | Hap1 MTAP intact/deleted ratio [2] | pIC50 ([3]; Homo sapiens, 168 h) | pIC50 ([1]; Homo sapiens) | pIC50 [1] | pIC50 [2] | IC90 [2] [nM] | pIC50 [3]
1 | CCc1cc(NC(=O)C(=O)N2C[C@@H](C)CC[C@@H]2c2ccc3sc([C@@H]4C[C@@H](C)N(C)C4)nc3c2)cnc1N (mixture of isomers) [Compound 4, N-(6-amino-5-ethyl-3-pyridyl)-2-oxo-2-[(2R,5S)-5-methyl-2-[2-[rac-(3R,5R)-1,5-dimethylpyrrolidin-3-yl]-1,3-benzothiazol-5-yl]-1-piperidyl]acetamide] | < 7.30 | > 8.30 | < 75 | A (“A” indicates an IC50 ratio greater than or equal to 30 fold) | > 7.00 | – | – | – | – | –
2 | CCc1cc(NC(=O)C(=O)N2C[C@@H](C)CC[C@@H]2c2ccc3sc([C@H]4CCN(C)C[C@@H]4OC)nc3c2)cnc1N (single isomer, unassigned) [Compound 90] | < 7.30 | > 8.30 | < 75 | A (“A” indicates an IC50 ratio greater than or equal to 30 fold) | > 7.00 | – | – | – | – | –
3 | CCc1cc(NC(=O)C(=O)N2C[C@@H](C)CC[C@@H]2c2ccc3sc(C4=CCN(C)CC4)nc3c2)cnc1N [Compound 28, N-(6-amino-5-ethylpyridin-3-yl)-2-((2R,5S)-5-methyl-2-(2-(1-methyl-1,2,3,6-tetrahydropyridin-4-yl)benzo[d]thiazol-5-yl)piperidin-1-yl)-2-oxoacetamide] | 7.30 to 8.30 | > 8.30 | < 75 | A (“A” indicates an IC50 ratio greater than or equal to 30 fold) | > 7.00 | – | – | – | – | –
4 | CCc1cc(NC(=O)C(=O)N2C[C@@H](C)CC[C@@H]2c2ccc3sc([C@@H]4CN(C)C[C@H]4C)nc3c2)cnc1N (mixture of isomers) [Compound 10, N-(6-amino-5-ethylpyridin-3-yl)-2-((2R,5S)-2-(2-(rac-(3S,4S)-1,4-dimethylpyrrolidin-3-yl)benzo[d]thiazol-5-yl)-5-methylpiperidin-1-yl)-2-oxoacetamide] | < 7.30 | > 8.30 | < 75 | A (“A” indicates an IC50 ratio greater than or equal to 30 fold) | > 7.00 | – | – | – | – | –
5 | COc1ncc(NC(=O)C(=O)N2C[C@@H](C)CC[C@@H]2c2ccc3sc(C4(C)CCN(C)CC4)nc3c2)cc1C(N)=O [Compound 122, 5-(2-((2R,5S)-2-(2-(1,4-dimethylpiperidin-4-yl)benzo[d]thiazol-5-yl)-5-methylpiperidin-1-yl)-2-oxoacetamido)-2-methoxynicotinamide] | – | > 8.30 | < 75 | A (“A” indicates an IC50 ratio greater than or equal to 30 fold) | > 7.00 | < 7.30 | – | – | – | –
6 | COc1ncc(NC(=O)C(=O)N2C[C@@H](C)CC[C@@H]2c2ccc3sc(CC4(C)CCN(C)CC4)nc3c2)cc1C(N)=O [Compound 22, 5-(2-((2R,5S)-2-(2-((1,4-dimethylpiperidin-4-yl)methyl)benzo[d]thiazol-5-yl)-5-methylpiperidin-1-yl)-2-oxoacetamido)-2-methoxynicotinamide] | < 7.30 | > 8.30 | < 75 | B (“B” indicates an IC50 ratio greater than or equal to 15 fold but lower than 30 fold) | > 7.00 | – | – | – | – | –
7 | COc1ncc(NC(=O)C(=O)N2C[C@@H](C)CC[C@@H]2c2ccc3sc(C[C@H](C)N(C)C)nc3c2)cc1C(N)=O [Compound 98, 5-(2-((2R,5S)-2-(2-((S)-2-(dimethylamino)propyl)benzo[d]thiazol-5-yl)-5-methylpiperidin-1-yl)-2-oxoacetamido)-2-methoxynicotinamide] | < 7.30 | > 8.30 | < 75 | A (“A” indicates an IC50 ratio greater than or equal to 30 fold) | – | – | – | – | – | –
8 | COc1ncc(NC(=O)C(=O)N2C[C@@H](C)CC[C@@H]2c2ccc3sc(C4CN(C)C(C)(C)C4)nc3c2)cc1C(N)=O (mixture of isomers) [Compound 77, 2-methoxy-5-(2-((2R,5S)-5-methyl-2-(2-(1,5,5-trimethylpyrrolidin-3-yl)benzo[d]thiazol-5-yl)piperidin-1-yl)-2-oxoacetamido)nicotinamide] | < 7.30 | > 8.30 | < 75 | A (“A” indicates an IC50 ratio greater than or equal to 30 fold) | > 7.00 | – | – | – | – | –
9 | CCc1cc(NC(=O)C(=O)N2C[C@@H](C)CC[C@@H]2c2ccc3sc(C(C)CN4CCCC4)nc3c2)cnc1N (single isomer, unassigned) [Compound 106] | – | – | – | B (“B” indicates an IC50 ratio greater than or equal to 15 fold but lower than 30 fold) | – | – | 7.30 to 8.30 | > 8.30 | < 75 | > 7.00
10 | COc1ncc(NC(=O)C(=O)N2C[C@@H](C)CC[C@@H]2c2ccc3sc([C@H]4C[C@@H]5CN(C)C[C@@H]5C4)nc3c2)cc1C(N)=O (single isomer, unassigned) [Compound 67] | < 7.30 | > 8.30 | < 75 | A (“A” indicates an IC50 ratio greater than or equal to 30 fold) | > 7.00 | – | – | – | – | –
11 | COc1ncc(NC(=O)C(=O)N2C[C@@H](C)CC[C@@H]2c2ccc3ccc(N4CCN(C)CC4)nc3c2)cc1C(N)=O [Compound 126, 2-methoxy-5-(2-((2R,5S)-5-methyl-2-(2-(4-methylpiperazin-1-yl)quinolin-7-yl)piperidin-1-yl)-2-oxoacetamido)nicotinamide] | < 7.30 | > 8.30 | < 75 | A (“A” indicates an IC50 ratio greater than or equal to 30 fold) | > 7.00 | – | – | – | – | –
12 | CCc1cc(NC(=O)C(=O)N2C[C@@H](C)CC[C@@H]2c2cccc(N3CCC(N(C)C)CC3)c2)cnc1N [Compound 9, N-(6-amino-5-ethylpyridin-3-yl)-2-((2R,5S)-2-(3-(4-(dimethylamino)piperidin-1-yl)phenyl)-5-methylpiperidin-1-yl)-2-oxoacetamide] | < 7.30 | > 8.30 | < 75 | A (“A” indicates an IC50 ratio greater than or equal to 30 fold) | > 7.00 | – | – | – | – | –
13 | COc1ncc(NC(=O)C(=O)N2C[C@@H](C)CC[C@@H]2c2ccc3ccc(C4CCN(C)CC4)nc3c2)cc1C(N)=O [Compound 88, 2-methoxy-5-(2-((2R,5S)-5-methyl-2-(2-(1-methylpiperidin-4-yl)quinolin-7-yl)piperidin-1-yl)-2-oxoacetamido)nicotinamide] | < 7.30 | > 8.30 | < 75 | A (“A” indicates an IC50 ratio greater than or equal to 30 fold) | > 7.00 | – | – | – | – | –
14 | [2H]C([2H])([2H])N1CCC(c2nc3cc([C@H]4CC[C@H](C)CN4C(=O)C(=O)Nc4cnc(OC)c(C(N)=O)c4)ccc3s2)CC1 [Compound 5, 2-methoxy-5-[[2-oxo-2-[(2R,5S)-5-methyl-2-[2-[1-(trideuteriomethyl)-4-piperidyl]-1,3-benzothiazol-5-yl]-1-piperidyl]acetyl]amino]pyridine-3-carboxamide] | – | – | – | – | > 7.00 | – | – | – | – | –
15 | [2H][13C]([2H])([2H])N1CCC(c2nc3cc([C@H]4CC[C@H](C)CN4C(=O)C(=O)Nc4cnc(N)c(CC)c4)ccc3s2)CC1 [Compound 129, N-(6-amino-5-ethyl-3-pyridyl)-2-oxo-2-[(2R,5S)-5-methyl-2-[2-[1-(trideuterio(1^13C)methyl)-4-piperidyl]-1,3-benzothiazol-5-yl]-1-piperidyl]acetamide] | – | – | – | – | > 7.00 | – | – | – | – | –
